# In patent publication US5002963A, “3-indolepyruvic acid derivatives and pharmaceutical use thereof” (priority 1987, dated 1991):
# Where a name gives a salt, the structure may show the parent alone.
# What was measured:
# [1] = Stability; type: physicochemical
# [2] = test system: NMDA induced convulsions; experiment: Test 7: NMDA induced convulsions; type: in vivo, Mice of Albino Swiss strain
# Experimental: Mice of Albino Swiss strain were treated with saline (controls) or with IPA (1 g/Kg i.p.) one hour before receiving a toxic dose of NMDA (154 mg/Kg i.p.).
# [3] = test system: audiogenic convulsions in DBA2 mice; experiment: Test 6: audiogenic convulsions in DBA2 mice; type: in vivo; conditions: for Animals with convulsions, % / Animals with convulsions: one hour before the test; for Animals with convulsions: number/total; for protective action against tonic convulsions induced by sound stimulations (in words): DBA2 mice
# Experimental: To evaluate whether an increase in kynurenic acid in the brain after administration of IPA could have a protective action on neurons stressed by excitatory aminoacids, the experimental pattern of inducing convulsions in a particular strain of mice (DBA2) by selected sound stimulations was followed. […] The substances were injected intravenously one hour before the test. Then the number of animals showing tonic convulsions was measured.
# [4] = test system: tryptophan and kynurenic acid in the brain of rats; conditions: rat, in vivo; for KYN/TRP × 10^3: ip, 250 mg/kg
# Text: (§1) For the measurement of such levels after administration of 3-indolepyruvic acid or a derivative thereof, a system was set up based on ultraviolet detection of the compounds separated by high pressure liquid chromatography.
# (§2) Briefly, after sacrific of the animal, some of the principal organs were taken and homogenized with alkaline ethanol. Proteins and cell remains were removed by centrifugation, whilst the over natant was adsorbed on Bio-Rad AG 1×8 resin. After washing with water it was eluted with formic acid. It was then passed on Bio-Rad AG 50W-×8 resin, eluted with 3% ammonia, dried and retaken with a small amount of water.
# (§3) The sample thus obtained was injected into a Waters apparatus for high pressure liquid chromatography, using a C18 10 micron column and eluting with 0,02 m citric acid containing 10% of methanol. The kynurenic acid levels were extrapolated by the calibration line of the acid and reading at 234 nm.
# Male rats were treated with saline solution (controls), IPA or tryptophan i.p. one hour before sacrifice. Each lot was of six animals.
# The reported values are in picomoles/g for kynurenic acid and picomoles/mg for tryptophan.
# [5] = test system: Kidney homogenate; experiment: Test 2: transformation into kynurenic acid in tissue homogenates (kidney); type: in vitro ADME, rats
# Experimental: (§4) Male rats fasting for 16 hours were sacrificed and their organs were taken and homogenized in 5 volumes of 0,05 M phosphate buffer pH 7,4+0,14 M KCl.
# (§5) Small amounts of homogenate (0,8 ml) were additioned with various amounts of 3-indolepyruvic acid or the derivatives thereof, dissolved into a buffer solution, and with a system for the production of free radicals, consisting of ascorbic acid (final 10^-5 M), FeCl3 (final 10^-6 M) and H2 O2 (final 10^-4 M). It was stirred at 37° C., then the reaction was blocked.
# [6] = test system: kynurenic acid; experiment: Test 5: time course of the kynurenic acid levels after administration of IPA; type: in vivo, rats; conditions: 250 mg/Kg i.p.; for kynurenic acid level, Brain / kynurenic acid level, Heart / kynurenic acid level, Kidney / kynurenic acid level, Liver: ± standard error
# Text: as §1, §2, §3
# Male rats, in lots of five animals each, were treated i.p. with 250 mg/Kg IPA and were sacrificed at different times, evaluating the levels of kynurenic acid present in various organs.
# The results are reported in picomoles/g±standard error.
# [7] = test system: kynurenic acid; experiment: Test 3: effect on the content of kynurenic acid after administration of IPA in rat; type: in vivo; conditions: 3 hours, ± standard error
# [8] = test system: kynurenic acid; experiment: as above; type: in vivo; conditions: for increase in the levels of kynurenic acid in the tissues (in words): rat, in vivo
# Text: as §1, §2, §3
# Male rats were treated with saline solution (controls) or with various doses of IPA, which was injected 3 hours before sacrifice. Each lot comprised 10 animals.
# The results are reported in picomoles/g of tissue (or ml of blood)±standard error.
# [9] = Test 1: transformation of 3-indolepyruvic acid into kynurenic acid in vitro, within a non enzymatic system; type: physicochemical; conditions: from 2 mg, HCl 0,1 M, O2 and light
# Experimental: When 3-indole pyruvic acid or a derivative thereof of formula 1 is incubated in a slightly acid solution (HCl 0,1 M), in the presence of oxidising agents (O2) and light, in time the formation of small amounts of kynurenic acid is observed. Particularly starting from 2 mg 3-indolepyruvic acid, 0,5 micrograms are obtained after 2 hours and 0,7 micrograms after 4 hours.
# [10] = test system: Brain homogenate; experiment: Test 2: transformation into kynurenic acid in tissue homogenates (brain); type: in vitro ADME, rats; conditions: for Amount of kynurenic acid formed: brain homogenate
# Experimental: as §4, §5
# [11] = Water solubility; type: physicochemical
# [12] = test system: NMDA induced convulsions; conditions: cited from earlier work
# [13] = test system: excitatory aminoacids; conditions: cited from earlier work; for agonism of excitatory aminoacids (in words): central nervous system of mammals
# [14] = test system: audiogenic convulsions in DBA2 mice; conditions: known effect of kynurenic acid; cited from earlier work
# [15] = 1 g/Kg i.p. one hour before NMDA 154 mg/Kg i.p., number/total
# [16] = 100 mg/Kg i.p., 3 hours, ± standard error
# [17] = 250 mg.Kg i.p., 3 hours, ± standard error
# [18] = 500 mg.Kg i.p., 3 hours, ± standard error
smiles,measurement,setting,value
O=C(O)C(=O)Cc1c[nH]c2ccccc12 [3-indolepyruvic acid],stability (in words),[1],highly instable
same,Deaths,[2]; [15],3/9
same,Tonic convulsions,[2]; [15],5/9
same,protection against convulsions and death induced by NMDA (in words),"[2]; mouse, in vivo",able to protect mice against both convulsions and death induced by NMDA
same,"Animals with convulsions, %",[3]; 200 mg/Kg intravenously,33%
same,Animals with convulsions,[3]; 200 mg/Kg intravenously,4/12
same,protective action against tonic convulsions induced by sound stimulations (in words),[3],good protective action
same,precursor of cerebral kynurenic acid (in words),[4],selective precursor of cerebral kynurenic acid
same,KYN/TRP × 10^3,[4],0.40
same,Amount of kynurenic acid formed,"[5]; final 0.8 mg, 30'",160 ng
same,Amount of kynurenic acid formed,"[5]; final 0.8 mg, 60'",190 ng
same,Amount of kynurenic acid formed,"[5]; final 0.8 mg, 120'",208 ng
same,Amount of kynurenic acid formed,"[5]; final 1.6 mg, 30'",232 ng
same,Amount of kynurenic acid formed,"[5]; final 1.6 mg, 60'",280 ng
same,Amount of kynurenic acid formed,"[5]; final 1.6 mg, 120'",315 ng
same,Amount of kynurenic acid formed,"[5]; final 4 mg, 30'",185 ng
same,Amount of kynurenic acid formed,"[5]; final 4 mg, 60'",221 ng
same,Amount of kynurenic acid formed,"[5]; final 4 mg, 120'",270 ng
same,kynurenic acid levels over time in the organs (in words),[6],high increase of kynurenic acid in all the organs under test (maximum in kidney). The levels remain high even after 4 hours from administration
same,"kynurenic acid level, Brain",[6]; 1 hour,39 ± 4 picomoles/g
same,"kynurenic acid level, Heart",[6]; 1 hour,181 ± 18 picomoles/g
same,"kynurenic acid level, Kidney",[6]; 1 hour,2593 ± 250 picomoles/g
same,"kynurenic acid level, Liver",[6]; 1 hour,827 ± 50 picomoles/g
same,"kynurenic acid level, Brain",[6]; 2 hours,32 ± 3 picomoles/g
same,"kynurenic acid level, Heart",[6]; 2 hours,177 ± 20 picomoles/g
same,"kynurenic acid level, Kidney",[6]; 2 hours,2395 ± 200 picomoles/g
same,"kynurenic acid level, Liver",[6]; 2 hours,464 ± 40 picomoles/g
same,"kynurenic acid level, Brain",[6]; 3 hours,38 ± 4 picomoles/g
same,"kynurenic acid level, Heart",[6]; 3 hours,104 ± 12 picomoles/g
same,"kynurenic acid level, Kidney",[6]; 3 hours,1480 ± 150 picomoles/g
same,"kynurenic acid level, Liver",[6]; 3 hours,235 ± 5 picomoles/g
same,"kynurenic acid level, Brain",[6]; 4 hours,28 ± 3 picomoles/g
same,"kynurenic acid level, Heart",[6]; 4 hours,100 ± 11 picomoles/g
same,"kynurenic acid level, Kidney",[6]; 4 hours,1200 ± 150 picomoles/g
same,"kynurenic acid level, Liver",[6]; 4 hours,122 ± 10 picomoles/g
same,"kynurenic acid content, Blood",[7]; 100 mg/Kg per os,87 ± 8 picomoles/ml of blood
same,"kynurenic acid content, Brain",[7]; 100 mg/Kg per os,28 ± 2 picomoles/g of tissue
same,"kynurenic acid content, Liver",[7]; 100 mg/Kg per os,275 ± 25 picomoles/g of tissue
same,"kynurenic acid content, Liver",[7]; 250 mg.Kg i.p.,547 ± 35 picomoles/g of tissue
same,"kynurenic acid content, Blood",[7]; 250 mg/Kg per os,120 ± 12 picomoles/ml of blood
same,"kynurenic acid content, Brain",[7]; 250 mg/Kg per os,38 ± 3 picomoles/g of tissue
same,"kynurenic acid content, Liver",[7]; 250 mg/Kg per os,485 ± 40 picomoles/g of tissue
same,"kynurenic acid content, Liver",[7]; 500 mg.Kg i.p.,2860 ± 300 picomoles/g of tissue
same,"kynurenic acid content, Blood",[8]; [16],62 ± 3 picomoles/ml of blood
same,"kynurenic acid content, Brain",[8]; [16],24 ± 1 picomoles/g of tissue
same,"kynurenic acid content, Liver",[8]; [16],240 ± 20 picomoles/g of tissue
same,"kynurenic acid content, Blood",[8]; [17],164 ± 10 picomoles/ml of blood
same,"kynurenic acid content, Brain",[8]; [17],32 ± 3 picomoles/g of tissue
same,"kynurenic acid content, Blood",[8]; [18],442 ± 20 picomoles/ml of blood
same,"kynurenic acid content, Brain",[8]; [18],110 ± 10 picomoles/g of tissue
same,"kynurenic acid in brain, times higher than the controls",[8]; 500 mg/Kg,six
same,increase in the levels of kynurenic acid in the tissues (in words),[8],dose-dependent
same,kynurenic acid obtained,[9]; after 2 hours,"0,5 micrograms"
same,kynurenic acid obtained,[9]; after 4 hours,"0,7 micrograms"
same,transformation into kynurenic acid in brain homogenate (in words),[10],able to transform into kynurenic acid in the brain
same,Amount of kynurenic acid formed,"[10]; 1.6 mg, 30'",165 ng
same,Amount of kynurenic acid formed,"[10]; 1.6 mg, 60'",280 ng
same,Amount of kynurenic acid formed,"[10]; 1.6 mg, 120'",380 ng
"COC(=O)C(=O)Cc1c[nH]c2ccccc12 [IPA-Methylester, 3-indolepyruvic acid methyl ester]",Amount of kynurenic acid formed,"[10]; amount not given, 30'",48 ng
same,Amount of kynurenic acid formed,"[10]; amount not given, 60'",65 ng
same,Amount of kynurenic acid formed,"[10]; amount not given, 120'",83 ng
"COC(=O)C(Cc1ccccc1)NC(=O)C(=O)Cc1c[nH]c2ccccc12 (stereo not shown) [IPE-PHE-Ome, 3indolepyruvic acid phenylalanine methylester]",Amount of kynurenic acid formed,"[10]; amount not given, 30'",75 ng
same,Amount of kynurenic acid formed,"[10]; amount not given, 60'",82 ng
same,Amount of kynurenic acid formed,"[10]; amount not given, 120'",92 ng
"COC(=O)C(Cc1ccc(O)cc1)NC(=O)C(=O)Cc1c[nH]c2ccccc12 (stereo not shown) [IPE-TYR-Ome, 3indolepyruvic acid tyrosine methylester]",Amount of kynurenic acid formed,"[10]; amount not given, 30'",44 ng
same,Amount of kynurenic acid formed,"[10]; amount not given, 60'",48 ng
same,Amount of kynurenic acid formed,"[10]; amount not given, 120'",79 ng
"O=C(O)C(=O)Cc1c[nH]c2ccccc12 [Mg^++ IPA salt, Mg salt of 3-indolepyruvic acid]","Animals with convulsions, %","[3]; intravenously, dose not given",29%
same,Animals with convulsions,"[3]; intravenously, dose not given",4/14
same,solubility in water (in words),[11],water soluble
"CN[C@H](CC(=O)O)C(=O)O [NMDA, N-methyl-D-aspartic acid]",neurotoxic effect (in words),[12]; activation of receptors of the excitatory aminoacids,powerful neurotoxic effect
"N[C@@H](Cc1c[nH]c2ccccc12)C(=O)O [Tryptophan, tryptophan, reference compound]","Animals with convulsions, %",[3]; 200 mg/Kg intravenously,80%
same,Animals with convulsions,[3]; 200 mg/Kg intravenously,8/10
same,protective action against tonic convulsions induced by sound stimulations (in words),[3],no effective action
same,KYN/TRP × 10^3,[4],0.16
same,Amount of kynurenic acid formed,"[5]; final 1.6 mg, 30'",55 ng
same,Amount of kynurenic acid formed,"[5]; final 1.6 mg, 60'",82 ng
same,Amount of kynurenic acid formed,"[5]; final 1.6 mg, 120'",111 ng
same,increase in the levels of kynurenic acid in the tissues (in words),[8],does not produce such an effect
same,transformation into kynurenic acid in brain homogenate (in words),[10],never transformed into kynurenic acid
same,Amount of kynurenic acid formed,"[10]; 1.6 mg, 30'",0 ng
same,Amount of kynurenic acid formed,"[10]; 1.6 mg, 60'",0 ng
same,Amount of kynurenic acid formed,"[10]; 1.6 mg, 120'",0 ng
O=C(O)c1cc(=O)c2ccccc2[nH]1 [kynurenic acid],protection against the toxicity due to NMDA (in words),[12]; well known effect of kynurenic acid,protects against the toxicity due to NMDA
same,"inhibition of the excitatory effects of quinolinic acid, N-methyl-D-aspartate and other aminoacids (in words)",[13],powerful inhibitor
same,protection against audiogenic convulsions (in words),[14],protective against convulsions
Nc1ccccc1C(=O)CC(N)C(=O)O (stereo not shown) [kynurenine],agonism of excitatory aminoacids (in words),[13],powerful agonists of excitatory aminoacids
O=C(O)c1cccnc1C(=O)O [quinolinic acid],agonism of excitatory aminoacids (in words),[13],powerful agonists of excitatory aminoacids
